Assays:
[1] = test system: LC3-II; assay: Autophagic flux analysis: LC3-II immunoblot in pancreatic acinar cells; type: cell-based, mouse; conditions: 30 minutes
Procedure: FIGS. 2A-2L show Gnptab ablation stimulates autophagosome formation and blocks autophagic flux in pancreatic acinar cells. Parameters of autophagy were measured in WT and […] pancreatic (A-C) acinar cells and (D-L) tissue. (A-C) Acinar cells incubated for 30 minutes with and without bafilomycin A1 (BafA1; 20 nM); LC3-II band intensity was quantified by densitometry, normalized to ERK in the same sample, and LC3-II/ERK ratios further normalized to untreated WT cells (control). Values are mean±SEM; each symbol represents an individual cell preparation (n=4-6 per condition). sP<0.05; paired 2-tailed Student's t test. (D) IB analysis of autophagic markers/mediators. Ub, ubiquitylated proteins. (E-K) Immunofluorescence colocalization analysis for LC3 and LAMP1 (E, G, and H), and LC3 and Stx17 (F and I-K) in WT and KO pancreas. In this and other figures, colocalization was quantified with Volocity software using Manders-Costes (percentage colocalization) and Pearson's coefficients. Values are mean±SEM; each symbol corresponds to 20 to 30 cells in a different field (n=6-9 fields from 3 mice per condition). ***P<0.001 vs. WT; 2-tailed Student's t test. (L). EM showing abnormally large autolysosomes with partially degraded material in pancreas of KO mice. Scale bars: 10 μm (E and F) and 3 μm (L).
To further assess the effects of Gnptab KO on autophagy, autophagic flux analysis was performed by measuring changes in LC3-II in acinar cells incubated with and without the lysosomal v-ATPase inhibitor, bafilomycin A1 (BafA1) (FIG. 2, A-C). The number of autophagic vacuoles in a cell is a net balance between autophagosome formation and their degradation through autophagic flux. Thus, the increase in LC3-II observed in KO pancreas (FIG. 1F and FIG. 2D; see also FIG. 17G) could have resulted from both induction of autophagosome formation and the inhibition of flux. […]
Immunoblots were developed using enhanced chemiluminescence detection kit (Pierce), and band intensities were quantified by densitometry using FluorChem HD2 imaging system (Alpha Innotech/ProteinSimple).

[2] = test system: neutral lipids; assay: BODIPY 493/503 staining of neutral lipids in acinar cells; type: cell-based, mouse; conditions: BafA1 20 nM
Procedure: FIGS. 13A-13G show neutral lipids accumulate in LE/Ly and autophagic compartments of Gnptab^−/− pancreas. Characteristics of neutral lipid metabolism were measured in (A-C,F,G) pancreatic tissue of WT, Gnptab^−/− (KO) and Atg5^Δpan mice, and (D,E) WT and KO acinar cells treated with Bafilomycin A1 (BafA1; 20 nM). (A) EM showing lipid inclusions in KO pancreas. (B-E) Tissue or cells were stained with BODIPY 493/503 for neutral lipids; BODIPY fluorescence intensity was quantified with Volocity software, normalized to the number of nuclei (DAPI) in the field, and expressed relative to WT control. […] (F,G) Perilipins (PLINs) were analyzed by immunoblot; their band intensities were densitometrically quantified, normalized to GAPDH in the same sample and, further, to WT. […] Significance was determined by 2-tailed Student's t test (G) or 1-way ANOVA followed by Tukey's multiple comparisons test (C,E). […]
All fluorescence images were acquired with a Zeiss LSM710 confocal microscope using x63 objective and preset within-experiment image acquisition settings. Quantitative fluorescence analysis was performed with Volocity software (PerkinElmer). Overlap between 2 fluorescent labels was measured using Manders-Costes coefficient. Pearson's colocalization coefficient was calculated if both immunolabeled proteins had the same (e.g. “dotted”) staining pattern.

[3] = test system: trypsin; assay: Trypsin activity in Gnptab−/− acinar cells; type: cell-based, mouse; conditions: 3 hours; 50 μM CA-074Me or 20 nM BafA1
Procedure: FIGS. 6A-6R show mechanisms mediating increased trypsin activity in Gnptab−/− pancreas. Trypsin activity and its regulation were analyzed in pancreatic (A, C, and D) tissue, (B and P-R) acinar cells, (E-H and O) lobules, and (I-N) subcellular fractions. In B, acinar cells were incubated for 3 hours without and with 20 nM BafAl or 50 μM CatB inhibitor CA-074Me; in P-R, with the cholesterol chelator methyl-β-cyclodextrin (MCD) at the indicated concentrations. In E-H, pancreatic lobules were double stained for TAP and LC3 or LAMP2; in O, for TAP and filipin. Quantitative colocalization analysis was done as detailed in FIG. 2. Each symbol in A, B, J-N, Q, and R represents an individual mouse or cell preparation (n=3-8 per condition). Each symbol in D, G, and H corresponds to 20 to 30 cells in a different field (n=9-20 fields from 3 WT and 3 KO mice or lobule preparations). Values are mean±SEM. **P<0.01, ***P<0.001 vs. WT tissue/lobules (A, G, and H) or corresponding WT subcellular fraction (K and M). ##P<0.01 vs. no inhibitors (B) or MCD (Q and R). ††P<0.01, †††P<0.001 vs. the other two fractions (L and N). Significance was determined by 2-tailed Student's t test (A, G, and H) or 1-way ANOVA followed by Tukey's multiple comparison test (B, K-N, Q, and R). Scale bars: 10 μm.
Activities of cathepsin (Cat) B and L, caspase-3, trypsin, and lysosomal acid lipase (LAL) were measured in pancreatic tissue or cell homogenates and subcellular fractions with fluorogenic assays using substrates specific for CatB (Z-Arg-Arg-AMC), CatL (Z-Phe-Arg-AMC), caspase-3-like ([…]), trypsin (Boc-Gln-Ala-Arg-AMC), as previously described (1-4, 6, 7); and for LAL (4-methylumbelliferyl oleate), as in (17). In measurements of CatL activity, the assay buffer also contained 50 μM CA-074me, a CatB inhibitor. LAL activity was measured in the absence and presence of the LAL inhibitor lalistat (100 μM) as the difference between these values (17).

[4] = test system: pancreas; assay: Pancreatic total cholesterol and lipids in acute pancreatitis models in WT mice; type: in vivo, mouse; conditions: Arg-AP, CER-AP or CDE-AP
Procedure: FIGS. 8A-8M show derangement of cholesterol metabolism in experimental pancreatitis. Characteristics of cholesterol metabolism were measured, as detailed in FIGS. 4A-4R, in pancreas of WT mice subjected to pancreatitis induced with cerulein (CER-AP), L-arginine (Arg-AP), or CDE diet (CDE-AP) (A, B, and E-G); ex vivo pancreatitis induced in WT mouse (C and I-M) or human acinar cells (D) with 100 nM CCK (CCK-AP) or 1 mM carbachol; and isolated pancreatic mitochondria (H). (B) Cholesterol ester (CE) heatmap; each column represents an individual mouse. (F) IB analysis of the indicated proteins. (G) LAL activity was measured by a fluorogenic assay (n=6 mice per condition). (H) Cholesterol content was measured by enzymatic assay. (I-M) Filipin colocalization with indicated proteins was quantified as detailed in FIGS. 2A-2L. Each symbol in A, C-E, and H represents an individual mouse, or cell or mitochondria preparation (n=3-15 per condition). Each symbol in J, K, and M corresponds to 20-30 cells in a different field (n=10-20 fields from 3 cell preparations per condition). Values are mean±SEM. *P<0.05, **P<0.01, ***P<0.001 vs. the same parameter in control/untreated pancreas, acinar cells or isolated mitochondria. Significance was determined by 2-tailed Student's t test (B, E, H, J, K, and M) or 1-way ANOVA followed by Tukey's multiple comparison test (A, C, and D). Scale bars: 10 μm.
Parameters of cholesterol metabolism were measured in (A, B, E, F) pancreas of mice subjected to pancreatitis induced with cerulean (CER-AP), L-arginine (Arg-AP), or combination of EtOH+palmitoleic acid (EtOH+POA); and (C) ex-vivo models on mouse and human acinar cells treated for 1 h with 100 nM CCK, […] or 500 μM TLCS. […] (B, C) Total cholesterol content was measured with cholesterol assay kit (Abcam, ab65390). […] Signficance was determined by 2-tailed student's t test. […]
Total cholesterol content was measured with Cholesterol Assay kit per manufacturer's instructions. […]
Triglycerides (TAG) content was measured using Triglyceride Assay kit. […]

Structure (SMILES) | LC3-II levels in KO compared with WT in presence of BafA1 ([1]; BafA1 20 nM, Gnptab−/− vs WT acinar cells) | LC3-II increase by BafA1, KO ([1]; Gnptab−/− (KO) acinar cells, 20 nM) | LC3-II increase by BafA1, WT ([1]; WT acinar cells, 20 nM) | BODIPY staining, KO ([2]; Gnptab−/− acinar cells) | BODIPY staining increase, WT ([2]; WT acinar cells) | Reduction of trypsin activity, Gnptab−/− acinar cells [3] | pancreatic total cholesterol, AP models [4]
CO/C1=C\C(C)=C\[C@@H](C)[C@@H](O)[C@@H](C)C/C(C)=C/C=C/[C@H](OC)[C@@H]([C@@H](C)[C@@H](O)[C@H](C)[C@@]2(O)C[C@@H](O)[C@H](C)[C@@H](C(C)C)O2)OC1=O [BafA1, bafilomycin A1] | approximately 11 fold | no increase | approximately 4 fold | no additional effect | approximately 3 fold | by half | –
N=C(N)NCCC[C@H](N)C(=O)O [L-arginine] | – | – | – | – | – | – | increases

From patent US20260325485A1, “COMPOSITIONS AND METHODS FOR TREATING PANCREATITIS” (The United States Government as represented by the …, priority 2022, published 2026)
